Results reported in patent US20090042839A1, “Crystalline forms of ibandronate sodium” (priority 2007, published 2009).

Assays:
[1] = Stability of crystalline forms of ibandronate sodium when stored for 3 months at room temperature (polymorphic form by XRD); assay type: physicochemical; conditions: for crystalline form after storage: storage at room temperature for 3 months; for Results (crystalline form after storage): stored at 25° C., polyethylene bags in closed Aluminium bags, monosodium salt
Description: The x-ray powder diffraction was performed on Scintag X-ray powder diffractometer model X'TRA with a solid state detector at room temperature. Copper radiation of 1.5418 Å was used. The sample holder was a round standard aluminum sample holder with rough zero background. The scanning parameters were range: 2-40 degrees two-theta; scan mode: continuous scan; step size: 0.05 degrees; and at a rate of 5 degrees/minute. […]

[2] = Storage of crystalline ibandronate sodium Form C at room temperature for 2 years, retested by XRD; assay type: physicochemical; conditions: stored at room temperature for 2 years
Description: The x-ray powder diffraction was performed on Scintag X-ray powder diffractometer model X'TRA with a solid state detector at room temperature. Copper radiation of 1.5418 Å was used. The sample holder was a round standard aluminum sample holder with rough zero background. The scanning parameters were range: 2-40 degrees two-theta; scan mode: continuous scan; step size: 0.05 degrees; and at a rate of 5 degrees/minute.
Crystalline ibandronate sodium Form C was stored at room temperature for 2 years.

SMILES: CCCCCN(C)CCC(O)(P(=O)([O-])O)P(=O)(O)O.[Na+] [Form Alpha, (1-hydroxy-3-(N-methyl-N-pentylamino)propylidene) bisphosphonic acid monosodium salt]
- crystalline form after storage [1]: maintained their crystalline form
- Results (crystalline form after storage) ([1]; 1 month): Alpha
- Results (crystalline form after storage) ([1]; 3 months): Alpha

SMILES: CCCCCN(C)CCC(O)(P(=O)([O-])O)P(=O)(O)O.[Na+] [Form C2, (1-hydroxy-3-(N-methyl-N-pentylamino)propylidene) bisphosphonic acid monosodium salt]
- crystalline form after storage [1]: maintained their crystalline form

SMILES: CCCCCN(C)CCC(O)(P(=O)([O-])O)P(=O)(O)O.[Na+] [Form C, (1-hydroxy-3-(N-methyl-N-pentylamino)propylidene) bisphosphonic acid monosodium salt, reference compound]
- crystalline form after storage [1]: maintained their crystalline form
- crystalline form found by XRD after storage [2]: crystalline ibandronate sodium Form V

SMILES: CCCCCN(C)CCC(O)(P(=O)([O-])O)P(=O)(O)O.[Na+] [Form n-butanolate, (1-hydroxy-3-(N-methyl-N-pentylamino)propylidene) bisphosphonic acid monosodium salt]
- crystalline form after storage [1]: maintained their crystalline form
- Results (crystalline form after storage) ([1]; 1 month): n-butanolate
- Results (crystalline form after storage) ([1]; 3 months): n-butanolate
